Consider one molecule from patent publication US11096924B2, “Combination therapies using immuno-dash inhibitors and PGE2 antagonists” (Trustees of Tufts College, priority 2016, dated 2021).

Read-outs that look alike come from different tables or passages of the source.

Series [1] concerns macrophages. Briefly: Pyroptosis of macrophages in cell culture. Type of series: cell-based. Conditions: Macrophage; Example 2 table; unit inferred.
In series [2] the test system is RAW 264.7 WT cells. Briefly: Pyroptosis in RAW 264.7 WT cells. Type of series: cell-based. Conditions: Mus musculus, RAW264.7.
Series [3] relates to MV4; 11 Luc-Neo. The series is described as follows: Pyroptosis in MV4;11 Luc-Neo cells. Type of series: cell-based. Conditions: Homo sapiens.
For series [4], the system named is THP-1 sgGFP. The series is described as follows: Pyroptosis in THP-1 sgGFP cells. In kind it is cell-based. Particulars: Homo sapiens.
Series [5] is described as follows: Maximum tolerated dose study (single dose) in Sprague Dawley rats. In kind it is in vivo. Conditions: SD rats, based on serum drug levels, with Pyrrophenone or AACOCF3. From the text: Bars show the MTD single dose in SD rats prior to seeing animal death. […] See also FIG. 17 for a similar comparison using cPLA2 inhibitors instead of COX inhibitors.
Bars show the MTD single dose in SD rats prior to seeing animal death. Based on serum drug levels, the addition of a cPLA2 inhibitor to the I-DASH inhibitor increases that MTD dose by at least 20-fold.
Bars show the MTD single dose in SD rats prior to seeing animal death.

Series [6] relates to MB49 murine urothelial carcinoma cell line. The series is described as follows: MB49 efficacy studies in tumor bearing mice. In kind it is in vivo.
The conditions of series [7]: phase I trial of talabostat and rituximab in rituximab-resistant lymphoma; cited from earlier work.
The subject of series [8] is G-CSF.

Turning to `CC(C)[C@H](N)C(=O)N1CCC[C@H]1B(O)O` [Val-boroPro, Valine-boroProline], the IC50 came to 49 nM in series [1], 98 nM in series [2], 60 nM in series [3] and 168 nM in series [4]. The “increase of MTD dose on addition of a cPLA2 inhibitor” value in series [5] was “at least 20 fold”. For the same molecule, the “tumor regression in combination with celecoxib” value in series [6] (20 microgram dose of Val-boroPro plus celecoxib, individual animal curves) was “facilitated the achievement of tumor regression”. The “antitumor activity in combination with celecoxib” value in series [6] (Val-boroPro plus celecoxib, tumor volumes over time) was “increased the antitumor activity of Val-boroPro markedly (statistically significantly) and in a dose-dependent manner”. The partial response in series [7] is 3 patients. The “Average [G-CSF] at 6 hrs” value in series [8] (20 μg/animal PO) worked out at 55000 pg/mL; in series [8] (20 μg/animal SC), 97000 pg/mL.

As a reminder, the IC50 is the concentration at which inhibition is half-maximal.
